Earlier results, collected in PMC10275055, “Preventing recurrence in Sonic Hedgehog Subgroup Medulloblastoma using the OLIG2 inhibitor CT-179” (Research Square, 2023).

Test system: OLIG2 dimerization and DNA binding
Parameters: method as in PMID 26517684, PMID 31953259
Settings: cited from earlier work

CCN1CCCC(Nc2cc(C)nc(/N=C(\N)Nc3ccc(Cl)c(Cl)c3)n2)C1 (stereo not shown) [SKOG102]
effect on OLIG2 dimerization and DNA binding: disrupts OLIG2 dimerization and DNA binding
